Test results reported in patent publication US12577300B2, “Neutralizing antibodies to human endothelin” (Father Flanagan's Boys' Home Doing Business as Boys Town …, priority 2019, dated 2026).
Blank lines part the entries; values can stand above or below the molecule they belong to.

How the values were obtained:
RAC1/CDC42 Rho GTPases = biological target: T1, RAC1/CDC42 Rho GTPases (Mus musculus, UniProt P63001); conditions: Zallocchi et al. 2013; cited from earlier work
T1 construct: host or cells: Alport mice (in vivo)

endothelin A receptor [1] = biological target: T2, endothelin A receptor (Mus musculus, UniProt Q61614); experiment: Sitaxentan treatment of Alport mice; format: in vivo
T2 construct: Endothelin A receptors are expressed primarily on mesangial cells; endogenous in cells; host or cells: Alport mice (in vivo)
T2 sequence (Q61614 21-427): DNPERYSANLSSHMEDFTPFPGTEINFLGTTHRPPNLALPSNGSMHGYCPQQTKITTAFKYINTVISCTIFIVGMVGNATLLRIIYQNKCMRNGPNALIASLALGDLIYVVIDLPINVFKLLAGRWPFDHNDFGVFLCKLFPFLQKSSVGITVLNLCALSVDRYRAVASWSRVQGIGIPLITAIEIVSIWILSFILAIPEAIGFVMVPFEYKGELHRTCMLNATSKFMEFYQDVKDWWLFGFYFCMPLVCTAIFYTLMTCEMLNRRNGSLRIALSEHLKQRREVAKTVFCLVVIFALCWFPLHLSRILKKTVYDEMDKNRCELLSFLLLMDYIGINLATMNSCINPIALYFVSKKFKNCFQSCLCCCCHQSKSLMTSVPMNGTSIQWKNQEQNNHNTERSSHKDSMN
Protocol: FIG. 1. […] Alport mice were treated with the indicated dose of Sitaxentan once daily from 2 to 7 weeks of age. Real time RT-PCR analysis for the indicated transcripts was performed on glomerular RNA.
FIGS. 3A and 3B. […] 129-Alport animals were treated with the endothelin A receptor specific blocking agent Sitaxentan from 2 weeks to 7 weeks of age.
FIGS. 4A and 4B. […] In FIG. 4A, urine was collected at the indicated timepoints and analyzed for albumin using an ELISA kit. Albumin measures were normalized to urinary creatinine. […] In FIG. 4B, BUN measures were performed on serum from 7-week-old vehicle or Sitaxentan-treated Alport mice.

endothelin A receptor [2] = biological target: T2, endothelin A receptor; experiment: Sitaxentan treatment of Alport mice; format: in vivo; conditions: 30 mg/kg once daily
[3] = system: pro-fibrotic genes, including Snail1; experiment: QIAGEN mouse fibrosis microarray of glomerular RNA from treated Alport mice; format: in vivo
Protocol: FIG. 2. Glomerular RNA from Alport mice treated with vehicle, Sitaxentan, or nAb #7 was analyzed using QIAGEN mouse fibrosis microarray. The data reveal that Sitaxentan (and Ambrisentan) induce a number of pro-fibrotic genes, including Snail1, which is known to play a key role in promoting renal fibrosis (Grande et al., 2015, Nat Med; 21(9):989-97). […] The data is consistent with aberrant signaling activation by classic small molecule ETAR antagonists that results in pro-fibrotic effects, defining a clear potential advantage of the biologic over small molecule approach.
Glomerular RNA from sitaxentan-treated and neutralizing antibody-treated mice was analyzed using QIAGEN mouse fibrosis microarrays.

endothelin A receptor [4] = biological target: T2, endothelin A receptor; conditions: Dufek et al. 2016, cited from earlier work
[5] = given once daily; cited from earlier work
ACE = biological target: T3, ACE (Mus musculus, UniProt P09470); conditions: cited from earlier work
T3 construct: host or cells: 129 Sv autosomal Alport mice (in vivo)
T3 sequence (P09470 35-1312): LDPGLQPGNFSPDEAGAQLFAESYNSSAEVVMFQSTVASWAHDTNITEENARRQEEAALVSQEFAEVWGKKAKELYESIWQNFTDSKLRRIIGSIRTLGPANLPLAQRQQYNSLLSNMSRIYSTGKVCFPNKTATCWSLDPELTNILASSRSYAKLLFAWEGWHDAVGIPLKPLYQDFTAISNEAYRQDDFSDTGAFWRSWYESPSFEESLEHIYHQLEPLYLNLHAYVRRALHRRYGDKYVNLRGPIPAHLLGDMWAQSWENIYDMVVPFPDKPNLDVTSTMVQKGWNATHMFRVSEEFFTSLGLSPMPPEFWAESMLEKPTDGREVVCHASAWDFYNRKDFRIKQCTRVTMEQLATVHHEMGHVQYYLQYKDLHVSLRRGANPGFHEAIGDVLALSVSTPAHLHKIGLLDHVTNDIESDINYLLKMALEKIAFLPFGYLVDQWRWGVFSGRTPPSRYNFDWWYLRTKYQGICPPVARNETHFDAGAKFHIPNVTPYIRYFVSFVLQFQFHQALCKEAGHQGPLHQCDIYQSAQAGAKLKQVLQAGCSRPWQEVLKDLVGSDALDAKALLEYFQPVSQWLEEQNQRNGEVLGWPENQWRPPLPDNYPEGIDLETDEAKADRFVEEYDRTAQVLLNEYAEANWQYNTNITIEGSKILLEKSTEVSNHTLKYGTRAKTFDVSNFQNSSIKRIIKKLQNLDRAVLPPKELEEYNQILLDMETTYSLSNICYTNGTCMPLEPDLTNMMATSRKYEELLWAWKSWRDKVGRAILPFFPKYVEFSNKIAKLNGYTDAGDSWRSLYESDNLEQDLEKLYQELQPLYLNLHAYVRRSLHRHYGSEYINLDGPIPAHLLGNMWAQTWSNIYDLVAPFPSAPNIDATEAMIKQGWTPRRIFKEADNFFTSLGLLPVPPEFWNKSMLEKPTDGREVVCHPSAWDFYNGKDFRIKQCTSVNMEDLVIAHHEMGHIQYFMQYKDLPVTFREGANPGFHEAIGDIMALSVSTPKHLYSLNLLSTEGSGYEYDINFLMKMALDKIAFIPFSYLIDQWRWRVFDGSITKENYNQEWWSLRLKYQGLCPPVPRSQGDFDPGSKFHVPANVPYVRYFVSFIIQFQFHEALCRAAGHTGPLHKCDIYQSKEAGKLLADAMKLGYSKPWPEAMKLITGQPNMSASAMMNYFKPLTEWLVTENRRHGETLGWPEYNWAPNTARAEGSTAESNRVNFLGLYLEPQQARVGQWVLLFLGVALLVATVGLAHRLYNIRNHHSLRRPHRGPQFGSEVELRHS

Compound: CCN(CC)CCCC(C)Nc1nc(C)cc(Nc2ccc3nc(C)cc(N)c3c2)n1 (stereo not drawn) [NCS 23766]
laminin 211 deposition in the Alport GBM (RAC1/CDC42 Rho GTPases): largely blocked

GBM dysmorphology (TEM) (endothelin A receptor [1]; 7-week-old Alport mice): normalized
serum BUN levels (endothelin A receptor [1]; 7-week-old mice): reduces
GBM laminin α2 deposition (endothelin A receptor [1]; 129 Sv/J autosomal Alport mice): greatly reduced
age at which measurable urinary albumin was first detected (endothelin A receptor [1]; albumin ELISA normalized to urinary creatinine): 6 weeks of age
infiltration of glomerular capillaries with mesangial filopodia (endothelin A receptor [1]; integrin α8 immunopositivity): greatly reduced
Alport pathogenesis (endothelin A receptor [1]; low dose 10 mg/kg once daily, 2 to 7 weeks of age): ameliorated Alport pathogenesis
glomerular mRNA expression of cytokines and metalloproteinases (MMP-9, MMP-10, MMP-12, MCP-1, IL-6) (endothelin A receptor [1]; real time RT-PCR): reduced to near control levels
% glomerulosclerosis (endothelin A receptor [1]; treated 2 to 7 weeks of age): reduced to near control levels
fibrosis scores (endothelin A receptor [1]; treated 2 to 7 weeks of age): reduced to near control levels
onset and progression of proteinuria (endothelin A receptor [1]; treated 2 to 7 weeks of age): significantly delays
induction of pro-fibrotic / pro-inflammatory genes incl. Snail1 in glomeruli [3]: markedly inducing
Compound: Cc1cc2c(cc1CC(=O)c1sccc1S(=O)(=O)Nc1onc(C)c1Cl)OCO2 [Sitaxentan]
therapeutic effect (endothelin A receptor [1]; 5 mg/kg): little to no significant therapeutic effect
BUN (endothelin A receptor [1]; 30 mg/kg dose): not statistically different from vehicle treated Alport mice
fibrosis scores (endothelin A receptor [1]; 30 mg/kg dose): not statistically different from vehicle treated Alport mice
glomerulosclerosis scores (endothelin A receptor [1]; 30 mg/kg dose): not statistically different from vehicle treated Alport mice
proteinuria (endothelin A receptor [1]; 30 mg/kg dose): not statistically different from vehicle treated Alport mice
renal disease (renotoxicity) (endothelin A receptor [1]; increasing doses above 10 mg/kg): exacerbated renal disease
lifespan vs vehicle (endothelin A receptor [2]): shorter lifespan than vehicle treated Alport mice
blood pressure (endothelin A receptor [4]; 129 Sv autosomal Alport mouse model): no effect on blood pressure
increase in lifespan (endothelin A receptor [4]; Alport mice): 20%
GBM damage vs vehicle-treated Alport mice (endothelin A receptor [4]): significantly reduced GBM damage
half-life in mice [5]: 6 h

Compound: COC(c1ccccc1)(c1ccccc1)[C@H](Oc1nc(C)cc(C)n1)C(=O)O [Ambrisentan]
half-life in mice [5]: 6 h

Compound: CCOC(=O)[C@H](CCc1ccccc1)N[C@@H](C)C(=O)N1[C@H](C(=O)O)C[C@@H]2CCC[C@@H]21 [ramipril]
degree of GBM damage (ACE; Gross et al. 2003): comparable to untreated Alport mice
lifespan (ACE; administered before onset of proteinuria, Gross et al. 2003): doubled
blood pressure (ACE; mouse, in vivo): reduces blood pressure
